From ChEMBL document CHEMBL4028862 (J Med Chem, 2017)
Activity calls are given as the source filed them. The calls are words filed in the database; no cut-off is given here.

Tests used:
[1] = molecular target: T1, Acid-sensing ion channel 1 (Rattus norvegicus, UniProt P55926); assay: Inhibition of rat ASIC1a receptor expressed in xenopus lavies oocytes assessed as inhibition of pH 6.7-gated currents by two electrode voltage clamp; type: cell-based
T1 sequence (P55926 whole entry): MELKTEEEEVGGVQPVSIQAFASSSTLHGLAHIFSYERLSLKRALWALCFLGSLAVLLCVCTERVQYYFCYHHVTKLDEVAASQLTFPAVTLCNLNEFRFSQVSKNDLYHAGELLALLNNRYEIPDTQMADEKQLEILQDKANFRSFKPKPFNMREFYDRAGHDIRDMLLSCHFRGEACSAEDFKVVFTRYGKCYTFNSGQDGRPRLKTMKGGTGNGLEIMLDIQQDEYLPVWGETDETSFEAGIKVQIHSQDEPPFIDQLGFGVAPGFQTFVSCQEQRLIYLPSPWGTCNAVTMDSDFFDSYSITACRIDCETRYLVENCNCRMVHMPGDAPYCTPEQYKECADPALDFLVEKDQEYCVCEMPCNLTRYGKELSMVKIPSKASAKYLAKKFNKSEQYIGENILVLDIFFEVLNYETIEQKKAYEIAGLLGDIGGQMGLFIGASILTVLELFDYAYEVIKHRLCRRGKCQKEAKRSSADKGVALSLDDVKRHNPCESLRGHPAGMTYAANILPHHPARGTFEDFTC

[2] = molecular target: T2, Acid-sensing ion channel 3 (Rattus norvegicus, UniProt O35240); assay: Inhibition of rat ASIC3 receptor expressed in xenopus lavies oocytes assessed as inhibition of pH 6.4-gated currents by two electrode voltage clamp; type: cell-based
T2 sequence (O35240 whole entry): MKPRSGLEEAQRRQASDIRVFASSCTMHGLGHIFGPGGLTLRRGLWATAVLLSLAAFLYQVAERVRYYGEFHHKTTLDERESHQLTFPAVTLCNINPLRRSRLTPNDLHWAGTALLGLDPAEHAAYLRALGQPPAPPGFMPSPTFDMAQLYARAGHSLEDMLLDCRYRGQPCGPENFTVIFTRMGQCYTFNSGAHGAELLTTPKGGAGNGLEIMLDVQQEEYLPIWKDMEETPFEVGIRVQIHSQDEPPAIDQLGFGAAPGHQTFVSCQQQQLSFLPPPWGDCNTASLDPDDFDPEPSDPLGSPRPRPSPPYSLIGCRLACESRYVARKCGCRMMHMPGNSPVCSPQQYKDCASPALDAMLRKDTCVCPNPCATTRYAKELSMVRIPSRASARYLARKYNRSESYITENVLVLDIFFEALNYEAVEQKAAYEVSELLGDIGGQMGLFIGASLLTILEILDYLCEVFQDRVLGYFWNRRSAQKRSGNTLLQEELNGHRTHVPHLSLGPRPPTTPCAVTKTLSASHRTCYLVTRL

[3] = molecular target: T3, Acid-sensing ion channel 1 (Rattus norvegicus) (UniProt P55926); assay: Inhibition of rat ASIC1a receptor expressed in xenopus lavies oocytes at 0.03 to 3 mM at greater than pH 5 by two electrode voltage clamp; type: cell-based
T3 sequence (whole entry): T1 sequence (P55926 whole entry)

[4] = Solubility of the compound in buffer at less than pH 5; type: physicochemical
[5] = Solubility of the compound in buffer at pH 4; type: physicochemical
[6] = molecular target: T3, Acid-sensing ion channel 1 (Rattus norvegicus)
cells = conditions: Rattus norvegicus
[7] = molecular target: T3, Acid-sensing ion channel 1 (Rattus norvegicus); assay: Inhibition of rat ASIC1a receptor expressed in xenopus lavies oocytes at 0.1 to 3 mM at greater than pH 5 by two electrode voltage clamp; type: cell-based

SMILES | IC50 [1] [µM] | IC50 [2] [µM] | further results
CC(C)Cc1ccc(CC(=O)O)cc1 [IBUFENAC] | 1020 | 417 | 
CC(C)Cc1ccc(C(=O)O)cc1 | 417 | 302 | inhibition [3]: Active
CC(C)Cc1ccc(C(F)C(=O)O)cc1 (centres undefined) | 955 | 891 | 
CC(C)Cc1ccc(C(C)C(=O)O)cc1 (racemic) [IBUPROFEN] |  |  | solubility [4]: Insoluble; solubility [5]: Insoluble; pH50 [6]: 6.6; IC50 (cells): 3000 µM; IC50 (cells; read-out: pIC50 (converted)): 3160 µM
CCC(C(=O)O)c1ccc(CC(C)C)cc1 (centres undefined) [BUTIBUFEN] | 182 | 288 | 
CC(C)Cc1ccc(C(C)[N+](=O)[O-])cc1 (centres undefined) |  |  | inhibition [7]: inactive
CC(C(=O)O)c1ccc(-c2ccccc2)c(F)c1 (racemic) [FLURBIPROFEN] | 170 | 229 | 
Cc1ccc(C(C)C(=O)O)cc1 (centres undefined) | > 10000 | 708 | 
